Like-named read-outs stand apart in the source and are kept apart here.
Assays:
[1] = system: cherry tomato (Suncherry Pure); format: in vivo; conditions: 10 mM sprinkled once a week
Method: Three seeds of cherry tomato (Suncherry Pure, Tokita Seed) were shown in compost contained in a slit pot, and cultivated in the same manner as described in Example 1, provided that the cultivation was performed in a greenhouse as in Example 2. The compost and application of fertilizer were the same or performed in the same manner as those described in Example 1. One month after the sowing, each seedling was permanently planted in a 9.0-cm long pot (top diameter 9 cm, height 20 cm, bottom diameter 6.4 cm), and cultivated until harvest. As for application of fertilizer, a 200-fold diluted solution of Vegetable Life A (Otsuka Chemical) was additionally applied as a fertilizer by irrigation in a volume of 100 mL per one root clump (pot) every two days from one month after the sowing to the harvest. After the plants of four root clumps uniformly grew, and flower buds began to appear, water (Con.), 10 mM L-isoleucine aqueous solution (Ile), or 10 mM proline aqueous solution (Pro) was sprinkled on the whole plants once a week. The sprinkled volume was adjusted in accordance with the growth of the plants, and it was 15 to 30 mL per one root clump. Then, ripening of fruit, number of fruit, amino acid content of fruit juice, sugar content and acidity of fruit juice, and antioxidant capacity of fruit juice were investigated for each root clump.

[2] = system: cherry tomato (Suncherry Pure); test: Amino acid analysis of tomato fruit obtained with sprinkling of Ile or Pro; format: in vivo
Method: After the plants of four root clumps uniformly grew, and flower buds began to appear, water (Con.), 10 mM L-isoleucine aqueous solution (Ile), or 10 mM proline aqueous solution (Pro) was sprinkled on the whole plants once a week. The sprinkled volume was adjusted in accordance with the growth of the plants, and it was 15 to 30 mL per one root clump.
Mature fruit were taken from each of the cherry tomato plants sprinkled with water, Ile, or Pro, and the amino acid content was analyzed for each. Two pieces of fruit were taken from the flower cluster of the second tier of one root clump, that is, a total of 8 pieces of fruit were taken for each test group. Fruit juice was pressed out of each piece of fruit, and the fruit juice was diluted 10 times with 0.02 N HCl, and subjected to filter filtration. The amino acids contained in the obtained filtrate were measured. Measurement of the amino acids was performed with High Speed Amino Acid Analyzer L-8800 (Hitachi) according to the manual of this instrument. The amounts of the amino acids (μmol/mL) in each fruit juice filtrate were calculated, and the averages for eight pieces of fruit were used as the amino acid amounts of the corresponding test group.

[3] = system: grape (Cabernet Sauvignon); test: Anthocyanin content of pericarp of grape bunches sprinkled with isoleucine; format: in vivo; conditions: 10 mM isoleucine + 0.1% Applauch BI, 6.25 mL per bunch; Cabernet Sauvignon after start of veraison
Method: For the test, Cabernet Sauvignon plants that had been cultivated in a test cultivation field and had begun veraison were used. Eight bunches of fruit of the grape were collected from each of two root clumps, i.e., total 16 bunches of fruit were collected, and 6.25 mL per bunch of 0.1% Applauch BI (Kao, control), 1 g/L of abscisic acid (ABA)+0.1% Applauch BI (positive control), or 10 mM isoleucine+0.1% Applauch BI were sprinkled on them. The samples were collected 4 times, and they were collected from 4 bunches for each time. Anthocyanin contained in pericarp was extracted with a mixed solution of water and acetone (1:2) from pericarp, and anthocyanin content was measured in the same manner as described above.

[4] = cited from earlier work
rice seeds = rice seeds treated with 0.2 to 20 mM isoleucine; cited from earlier work
bok choy = conditions: substitution for 20% of nitrate nitrogen in nutrient solution, hydroponics; cited from earlier work
[5] = fruit juice, plants sprinkled with 10 mM solution once a week, average of 8 fruit

Q: For `CC[C@H](C)[C@H](N)C(=O)O` [Ile, L-isoleucine], which “final crop yield: number of fruit produced, larger as compared to water (Con.)” value [1] is on record?
A: Its value is 16%.

Q: And the “number of tomatoes that had changed color” value [1]?
A: Its value is “larger in the order of the tomato plants sprinkled with Ile, Pro, and water (Con.)”.

Q: And the “many kinds of essential amino acids including branched chain amino acids and aromatic amino acids in fruit” value ([2]; 10 mM sprinkled once a week, compared to control)?
A: Its value is “increased”.

Q: And the “Ala in fruit juice” value [2, 5]?
A: Its value is 4.51 µmol/mL.

Q: What about the “Arg in fruit juice” value [2, 5] of the same compound?
A: Its value is 0.14 µmol/mL.

Q: And the “Asn in fruit juice” value [2, 5]?
A: The value was 0.55 µmol/mL.

Q: And the “Asp in fruit juice” value [2, 5]?
A: The value was 1.33 µmol/mL.

Q: And the “Cys in fruit juice” value [2, 5]?
A: Its value is 0.21 µmol/mL.

Q: What about the “Gln in fruit juice” value [2, 5] of the same compound?
A: Its value is 1.1 µmol/mL.

Q: What about the “Glu in fruit juice” value [2, 5] of the same compound?
A: Its value is 6.46 µmol/mL.

Q: What about the “Gly in fruit juice” value [2, 5] of the same compound?
A: The value was 0.35 µmol/mL.

Q: And the “His in fruit juice” value [2, 5]?
A: Its value is 0.19 µmol/mL.

Q: What about the “Ile in fruit juice” value [2, 5] of the same compound?
A: Its value is 0.23 µmol/mL.

Q: What about the “Leu in fruit juice” value [2, 5] of the same compound?
A: The value was 0.39 µmol/mL.

Q: And the “Lys in fruit juice” value [2, 5]?
A: Its value is 0.33 µmol/mL.

Q: What about the “Met in fruit juice” value [2, 5] of the same compound?
A: The value was 0.09 µmol/mL.

Q: And the “Phe in fruit juice” value [2, 5]?
A: Its value is 0.5 µmol/mL.

Q: What about the “Pro in fruit juice” value [2, 5] of the same compound?
A: Its value is 0.33 µmol/mL.

Q: And the “Ser in fruit juice” value [2, 5]?
A: Its value is 0.67 µmol/mL.

Q: And the “Thr in fruit juice” value [2, 5]?
A: The value was 0.3 µmol/mL.

Q: What about the “Total amino acids in fruit juice” value [2, 5] of the same compound?
A: Its value is 20.25 µmol/mL.

Q: What about the “Trp in fruit juice” value [2, 5] of the same compound?
A: Its value is 0.06 µmol/mL.

Q: What about the “Tyr in fruit juice” value [2, 5] of the same compound?
A: Its value is 0.082 µmol/mL.

Q: And the “Val in fruit juice” value [2, 5]?
A: The value was 0.21 µmol/mL.

Q: What about the “γ-ABA in fruit juice” value [2, 5] of the same compound?
A: The value was 6.42 µmol/mL.

Q: What about the “anthocyanin content of pericarp” value [3] of the same compound?
A: Its value is “increases”.

Q: And the “solubility of isoleucine in water” value ([4]; 20° C.)?
A: Its value is 40.2 mg/mL.

Q: And the “solubility of isoleucine in water” value [4]?
A: Its value is “about 0.3 M”.

Q: And the “production of momilactones A and B” value (rice seeds)?
A: Its value is “promoted”.

Q: And the “growth (weight of root clump)” value (bok choy)?
A: The value was “not effective”.

Q: What about the “nitrogen and phosphorus contents of terrestrial parts (shoots)” value (bok choy) of the same compound?
A: The value was “increased”.
